Experimental data as given in patent US7361681B2, “Method of treating amytrophic lateral sclerosis using melatonin” (SYGNIS Bioscience GmbH & Co. KG, priority 2003, dated 2008).
Values joined by “and” are separate entries in the source; they are usually repeats but may differ in a detail not shown here. Equal entries are not always repeated.

Experiments:
[1] = cited from earlier work
ALS patients = experiment: pilot program of chronic high-dose melatonin in ALS patients; type: in vivo, human
Text: Three ALS patients with an estimated onset of disease 2-4 yr previously, were included in a pilot program in Göttingen, set up to explore potential effects and side-effects of chronic high-dose melatonin in this condition. Intraindividual follow-up (upon entering the study, and after 1, 2, 6, 9 and 13 months of treatment thus far) included physical examination/clinical rating scales (ALS functional rating scale, ALSFRS), pulmonary function test, EMG-NCV, routine laboratory parameters, psychological rating scales, as well as magnetic resonance imaging and MR spectroscopy. Patients received 30-60 mg of melatonin as an oral slow release formulation in the late evening. In addition, they continued their “regular medication” in the morning and at noon (RIUZOLE® 50-100 mg, vitamins C and E, creatine, […]).

[2] = 30-60 mg melatonin oral slow release in the late evening, up to 13 months

Description for SODG93A-transgenic mice: Rotarod failure is defined to start when mice are no longer able to stay in the rotarod for more than 300 sec (=early disease state).
Shown are days after score 1 (abnormal hindlimb reflex or tremor in at least one extremity or asymmetrical gait) to score 4 (endpoint criteria/death).
Melatonin was continuously applied via drinking water (0.5 mg/ml of water containing 1% of ethanol to enable a saturated solution of melatonin) starting on day 28 of life and continued until death. The vehicle control received water containing 1% of ethanol.

COc1ccc2[nH]cc(CCNC(C)=O)c2c1 [melatonin, N-acetyl-5-methoxytryptamine]
survival and course of disease (rotarod performance, progression of paresis, weight loss) (SODG93A-transgenic mice; 0.5 mg/ml in drinking water with 1% ethanol, from day 28 of life until death): significant improvement
adverse effects of systemic melatonin (SODG93A-transgenic mice; 0.5 mg/ml in drinking water, application of several months): No adverse effects
days from rotarod failure (no longer able to stay more than 300 sec) to death, versus vehicle (SODG93A-transgenic mice; SODG93A mice, n=9-12 per group, FIG. 1): significantly more
days from clinical score 1 to score 4 (endpoint criteria/death), versus vehicle (SODG93A-transgenic mice; SODG93A mice, n=9-12 per group, FIG. 2): significantly more
crossing of the blood-brain barrier ([1]; in vivo): readily crosses
duration of high plasma levels ([1]; slow release preparations): about 6 hr
side effects reported or detected (ALS patients; [2]): No side effects
signs of fatigue (ALS patients; [2]): no signs of fatigue
tolerability over the entire observation period (ALS patients; 30-60 mg melatonin oral slow release in the late evening, up to 13 months, plus regular medication): well tolerated
clinical laboratory parameters (blood cell count, electrolytes, liver enzymes, creatinine, CRP etc.) during melatonin treatment (ALS patients; 30-60 mg melatonin oral slow release nightly): did not show alterations
clinical rating scale (ALSFRS) one year later (ALS patients; three patients, 30-60 mg melatonin oral slow release nightly): 22 and 11 and 20
clinical rating scale (ALSFRS) at the start of the trial (ALS patients; three patients, baseline): 34 and 25 and 31
